Source: article PMC3895372 (Nature communications, 2014)

Assays:
m-calpain = target: T1, m-calpain (Rattus norvegicus, UniProt Q07009); assay: fluorogenic Suc-Leu-Tyr-AMC hydrolysis assay with purified enzyme; type: biochemical
T1 sequence (Q07009 20-700): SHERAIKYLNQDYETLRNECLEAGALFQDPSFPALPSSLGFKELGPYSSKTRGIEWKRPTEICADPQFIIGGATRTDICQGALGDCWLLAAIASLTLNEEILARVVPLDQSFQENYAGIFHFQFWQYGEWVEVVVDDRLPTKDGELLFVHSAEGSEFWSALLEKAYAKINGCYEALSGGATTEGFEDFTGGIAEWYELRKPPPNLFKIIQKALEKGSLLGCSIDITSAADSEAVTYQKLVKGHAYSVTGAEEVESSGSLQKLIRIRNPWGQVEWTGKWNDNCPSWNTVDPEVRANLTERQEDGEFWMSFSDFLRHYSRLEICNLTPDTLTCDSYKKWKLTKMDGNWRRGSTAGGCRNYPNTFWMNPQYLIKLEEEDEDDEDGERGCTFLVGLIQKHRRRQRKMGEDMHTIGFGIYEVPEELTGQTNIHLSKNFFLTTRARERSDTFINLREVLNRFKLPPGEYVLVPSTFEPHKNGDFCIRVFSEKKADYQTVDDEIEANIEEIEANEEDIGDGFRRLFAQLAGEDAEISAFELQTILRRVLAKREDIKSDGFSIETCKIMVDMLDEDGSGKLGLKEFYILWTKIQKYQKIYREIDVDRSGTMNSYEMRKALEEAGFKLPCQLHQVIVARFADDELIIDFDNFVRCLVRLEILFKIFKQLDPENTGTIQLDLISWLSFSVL
T1 sequence (Q64537 1-270 partner): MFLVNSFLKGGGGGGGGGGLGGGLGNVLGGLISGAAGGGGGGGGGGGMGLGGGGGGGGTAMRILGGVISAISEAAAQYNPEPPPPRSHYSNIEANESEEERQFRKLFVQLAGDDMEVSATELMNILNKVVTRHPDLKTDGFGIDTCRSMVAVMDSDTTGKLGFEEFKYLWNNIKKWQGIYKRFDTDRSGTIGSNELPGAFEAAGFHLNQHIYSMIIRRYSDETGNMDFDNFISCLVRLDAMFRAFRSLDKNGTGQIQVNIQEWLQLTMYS

µ-calpain = target: T2, µ-calpain (Sus scrofa, UniProt P35750); assay: as above; type: biochemical
T2 sequence (P35750 1-714): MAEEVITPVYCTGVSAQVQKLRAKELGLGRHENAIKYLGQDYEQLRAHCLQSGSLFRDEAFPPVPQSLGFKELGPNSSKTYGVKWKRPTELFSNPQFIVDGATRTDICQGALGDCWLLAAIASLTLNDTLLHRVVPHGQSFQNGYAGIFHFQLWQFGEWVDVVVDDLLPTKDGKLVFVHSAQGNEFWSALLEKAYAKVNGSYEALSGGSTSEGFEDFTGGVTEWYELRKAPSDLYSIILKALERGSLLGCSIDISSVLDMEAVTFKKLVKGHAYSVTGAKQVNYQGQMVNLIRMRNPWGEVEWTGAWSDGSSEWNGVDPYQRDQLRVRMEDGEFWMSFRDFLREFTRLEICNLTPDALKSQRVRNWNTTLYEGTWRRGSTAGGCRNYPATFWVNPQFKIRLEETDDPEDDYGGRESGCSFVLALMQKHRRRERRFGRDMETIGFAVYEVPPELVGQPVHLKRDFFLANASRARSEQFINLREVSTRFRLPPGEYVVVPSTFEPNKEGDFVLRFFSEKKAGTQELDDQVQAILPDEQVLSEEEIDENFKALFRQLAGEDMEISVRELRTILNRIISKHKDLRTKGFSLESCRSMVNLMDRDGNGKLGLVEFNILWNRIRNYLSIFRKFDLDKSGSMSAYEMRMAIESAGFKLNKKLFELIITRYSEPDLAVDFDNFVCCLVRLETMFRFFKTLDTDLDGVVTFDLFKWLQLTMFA
T2 sequence (P04574 1-266 partner): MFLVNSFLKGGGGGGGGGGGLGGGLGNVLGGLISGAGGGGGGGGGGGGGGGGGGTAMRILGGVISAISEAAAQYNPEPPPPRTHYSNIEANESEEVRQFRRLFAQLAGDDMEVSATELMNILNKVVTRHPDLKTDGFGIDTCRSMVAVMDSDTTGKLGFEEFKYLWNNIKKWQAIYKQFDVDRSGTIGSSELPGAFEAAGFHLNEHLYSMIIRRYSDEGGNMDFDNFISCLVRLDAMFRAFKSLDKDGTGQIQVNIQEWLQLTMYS

Question: What does the source list for `CC[C@H](NC(=O)[C@H](CC(C)C)NC(=O)OCc1ccccc1)C(=O)C(=O)NCc1cc(OC)cc(OC)c1` [mCalp-I]?
Answer: Ki (m-calpain): 25 nM; Ki (µ-calpain): 940 nM
